Columns and labels:
[1] = test system: inducible RNAi transgenic plants (ABAR/CHLH expression); test: Induction of RNAi by 17beta-estradiol in inducible RNAi lines; type: in vivo, Arabidopsis thaliana; conditions: 10 μM 17beta-estradiol
From the text: These constructs were introduced in Agrobacterium tumefaciens GV3101 strain and transformed into plants by floral infiltration. The homozygous T3 seeds of the transgenic plants were used for analysis. […] The seeds of the gun4-1, gun5-1 and cch mutants were a generous gift from Dr. J. Chory (The Salk Institute, La Jolla, Calif.). The seeds of the mutants hy1-1 (ABRC#: CS67), hy2-1 (CS68) and chl-2 (CS3362) were obtained from the Arabidopsis Biological Resource Center (ABRC). Except for the mutants hy1-1 and hy2-1 with the ecotype Ler as background, all the other mutants were isolated from the ecotype Columbia. Plants were grown in a growth chamber at 20-21° C. on Murashige-Skoog (MS) medium at about 80 μmol photons m^−2 s^−1, or in compost soil at about 120 μmol photons m^−2 s^−1 over a 16-h photoperiod.
For the treatment of seedlings of the inducible RNAi lines with 17beta-estradiol (Sigma) to induce down-regulation of ABAR/CHLH expression, 17beta-estradiol was diluted from 10 mM stock solution prepared in dimethyl sulfoxide (DMSO) to 10 μM, and equivalent volume of DMSO was included in the 17beta-estradiol-free-treated controls. […] The amounts of ABAR/CHLH protein were also determined at the same time by immunoblotting. […] The expression of ABAR/CHLH and some ABA-responsive genes was assessed by real-time PCR.

gl1 plants = test: Treatments with norflurazon and chloramphenicol; type: in vivo, Arabidopsis thaliana
Method: The reagent chloramphenicol (Sigma; CP) was diluted from 100 mg/ml stock solutions prepared in ethanol to 150 μg/ml, and equivalent volume of ethanol was included in the chloramphenicol-free-treated controls. For norflurazon (Sigma; Nf) treatment, Nf was diluted from 100 mM stock solutions prepared in DMSO to 3 μM, and equivalent volume of DMSO was included in the Nf-free-treated controls. The 3-week-old seedlings were treated with CP or Nf by irrigation of either 150 μg/ml CP or 3 μM Nf dissolved both in distilled water. Stomatal response to exogenous (±)-ABA was assayed at different time intervals after the application of the reagents, and the amounts of ABAR/CHLH protein were immuno-determined at the same time.
ABA contents in tissues were assayed by radioimmunoassay method as described previously (Zhang, D. P. et al., Plant physiol. 128:714-725 (2002)).

[2] = molecular target: T1, Arabidopsis ABAR/CHLH (H subunit of Mg-chelatase) (Arabidopsis thaliana, UniProt Q9FNB0); test: ABA binding assay with purified yeast-expressed ABAR/CHLH; conditions: purified ABAR, 30 nM [3H]ABA, 1 to 1000-fold molar excess of competitor
T1 construct: 6xHis; made in house; host or cells: Pichia methanolica (Pichia Methanolica Expression kit, Invitrogen)
T1 sequence (Q9FNB0 50-1381): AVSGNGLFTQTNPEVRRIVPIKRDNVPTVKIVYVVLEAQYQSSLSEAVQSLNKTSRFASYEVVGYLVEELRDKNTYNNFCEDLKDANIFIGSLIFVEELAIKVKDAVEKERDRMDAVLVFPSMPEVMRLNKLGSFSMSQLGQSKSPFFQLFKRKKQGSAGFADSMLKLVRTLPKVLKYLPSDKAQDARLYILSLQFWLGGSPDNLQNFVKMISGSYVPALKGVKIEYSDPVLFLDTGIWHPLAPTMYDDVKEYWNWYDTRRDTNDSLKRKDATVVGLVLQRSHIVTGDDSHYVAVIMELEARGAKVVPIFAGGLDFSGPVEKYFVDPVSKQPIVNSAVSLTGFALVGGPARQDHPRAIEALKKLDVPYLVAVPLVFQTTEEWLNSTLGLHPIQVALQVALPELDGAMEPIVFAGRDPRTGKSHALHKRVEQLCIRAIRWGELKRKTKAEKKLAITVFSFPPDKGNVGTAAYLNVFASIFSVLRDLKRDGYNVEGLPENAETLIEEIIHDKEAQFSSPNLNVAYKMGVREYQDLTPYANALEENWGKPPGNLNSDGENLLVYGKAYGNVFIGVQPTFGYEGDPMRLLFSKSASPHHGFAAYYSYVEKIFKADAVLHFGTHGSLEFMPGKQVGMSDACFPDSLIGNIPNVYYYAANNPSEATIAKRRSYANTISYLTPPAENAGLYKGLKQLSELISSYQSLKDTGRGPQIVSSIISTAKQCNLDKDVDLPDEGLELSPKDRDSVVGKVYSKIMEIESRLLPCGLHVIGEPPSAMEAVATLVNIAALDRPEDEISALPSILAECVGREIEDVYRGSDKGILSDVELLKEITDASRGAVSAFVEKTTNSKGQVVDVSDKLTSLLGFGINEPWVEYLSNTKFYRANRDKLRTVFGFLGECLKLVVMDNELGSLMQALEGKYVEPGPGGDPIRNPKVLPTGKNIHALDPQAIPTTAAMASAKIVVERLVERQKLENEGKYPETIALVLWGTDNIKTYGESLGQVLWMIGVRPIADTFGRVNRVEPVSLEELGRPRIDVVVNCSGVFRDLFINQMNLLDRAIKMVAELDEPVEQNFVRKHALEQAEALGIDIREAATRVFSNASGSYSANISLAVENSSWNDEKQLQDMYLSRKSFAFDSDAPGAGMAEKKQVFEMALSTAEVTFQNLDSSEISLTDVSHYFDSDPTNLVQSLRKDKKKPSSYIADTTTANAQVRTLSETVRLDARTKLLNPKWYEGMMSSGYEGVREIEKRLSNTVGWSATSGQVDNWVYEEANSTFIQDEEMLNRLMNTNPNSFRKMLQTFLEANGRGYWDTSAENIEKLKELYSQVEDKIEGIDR
Method: Full-length ABAR/CHLH coding sequence was PCR-amplified with forward primer 5′-[…]-3′ (SEQ ID NO:30) and reverse primer 5′-[…]-3′ (SEQ ID NO:31). The recombinant ABAR/CHLH was expressed in yeast as a fusion protein with a 6×His (SEQ ID NO:32) tag by using Pichia Methanolica Expression kit (Invitrogen) and the fusion protein was affinity-purified according to manufacturer's instructions.
The ABA-binding activity of ABAR was assayed according to the previously described procedures (Zhang, D. P. et al., Plant physiol. 128:714-725 (2002)) with modifications. The binding medium (medium A) contained 50 mM Tris-HCl (pH 7.0), 2 mM MgCl2, 1 mM CaCl2, and 250 mM mannitol. The medium for extracting the Arabidopsis natural ABAR/CHLH protein (medium B) was the medium A supplemented with 2 mM 1,4-dithiothreitol (DTT), 1 mM phenylmethyl sulfonyl fluoride (PMSF), […] leupeptin, and […] pepstin A but minus 250 mM mannitol. [^3H](+)ABA (American Radiolabeled Chemicals, 2.37×10^12 Bq mmol^−1, purity 98.4%) at 30 nM, or at a step gradient of concentrations from 0 to 70 nM (when analyzing ABA binding kinetics, see FIG. 1a, d1), together with 2 μg purified yeast-expressed ABAR/CHLH protein or 50 μg proteins of the crude extracts from two-week-old Arabidopsis seedlings, was added into the medium A. The total volume for the binding assays was adjusted to 200 μl. The mixtures were incubated at 25° C. for 30 min, and then quickly placed on ice. Following the addition of 100 μl 0.5% (w/v) Dextran T70-coated charcoal (DCC) to remove the free [^3H]ABA by adsorption, the mixtures were maintained on ice for 5 min, and then centrifuged to remove DCC before the radioactivity in the supernatant was counted. The specific binding was determined by the difference between the radioactivity bound to the immuno-purified ABAR protein or crude extracts of Arabidopsis seedlings incubated only with [^3H]ABA (total binding) and radioactivity bound in the presence of 1,000-fold molar excess of unlabeled (+)-ABA (Sigma; non-specific binding. Non-specific binding in all the assays was lower than 10% of the total binding, see FIG. 1a, d1). The unlabeled ABA was added into the incubation medium at the same time with [^3H]ABA. The ABA-binding activity of the crude ABA-binding protein from Arabidopsis seedling was expressed as the number of nanomoles of [^3H]ABA specifically bound per gram of protein, and that of the immuno-purified ABAR protein as the number of moles of [^3H]ABA per mole of protein. The stereo-specificity of the ABA-binding was assayed as described previously (Zhang, D. P. et al., Plant physiol. 128:714-725 (2002)). […] The conditions of incubation were the same as described above (the incubation medium containing 30 nM [^3H]ABA), and the two ABA isomers and (+)-ABA were assayed in the concentrations ranging from 1 to 1000-fold molar excess of [^3H]ABA.

[3] = molecular target: T2, natural ABAR/CHLH protein (Arabidopsis thaliana, UniProt Q9FNB0); test: Pull-down assay with anti-ABAR serum; type: binding; conditions: 30 nM [3H](+)ABA
T2 construct: 50 μg proteins of the crude extracts from two-week-old Arabidopsis seedlings; from tissue; host or cells: crude extracts of two-week-old Arabidopsis seedlings / leaves of gl1 (WT), RNAi line 12 and overexpressor line 1
T2 sequence (Q9FNB0 50-1381): T1 sequence (Q9FNB0 50-1381)
Method: The pull down assay was done as follows to detect ABA binding to the natural ABAR/CHLH protein. Total proteins were extracted from two-week-old Arabidopsis seedlings with the medium C composed of the medium B supplemented with 250 mM mannitol. The crude extracts (3 mg total proteins) was incubated by gently shaking in the medium C (400 μl) containing 30 nM [^3H](+)ABA at 4° C. for 2 h, and the anti-ABAR^N serum (10 μg, described below) was added into the medium for a further incubation at 4° C. for 2 h, and then the medium was supplemented by 100 μl 25% (v/v) protein A-agarose (Santa Cruz) for a final incubation at 4° C. for 2 h. Following the incubation, protein A-agarose was recovered by a brief centrifugation and washed with 1 ml medium C. The pellets were resuspended in […] water and mixed with scintillation fluid before the radioactivity (d.p.m., disintegrations per minute) of the bound [^3H](+)ABA was measured.
Three independent control experiments were performed for the pull down assays. A control was done by addition of the same amounts of mouse preimmune serum instead of the antiserum to the medium of the above-described pull down assay in the extracts from the leaves of wild-type plants. […]

Compound: C[C@]12CC[C@@H]3c4ccc(O)cc4CC[C@H]3[C@@H]1CC[C@@H]2O [17beta-estradiol]
- ABAR transcript and product / ABAR levels [1]: significant decline
- ABAR transcript and product / ABAR levels ([1]; listed as 17beta-oestradiol): decrease

Compound: O=C(N[C@H](CO)[C@H](O)c1ccc([N+](=O)[O-])cc1)C(Cl)Cl [chloramphenicol]
- ABA contents (gl1 plants; CP-treated plants, 150 μg/ml by irrigation): remained unchanged
- ABAR levels (gl1 plants; after CP treatment (FIG. 9)): decrease
- stomatal movement response to ABA (gl1 plants; after CP treatment (FIG. 9), 10 μM (±)-ABA): ABA-insensitive

Compound: CNc1cnn(-c2cccc(C(F)(F)F)c2)c(=O)c1Cl [norflurazon]
- ABA contents (gl1 plants; Nf-treated plants, 3 μM by irrigation): remained unchanged

Compound: CC(C=CC1(O)C(C)=CC(=O)CC1(C)C)=CC(=O)O (stereo not drawn) [trans-ABA]
- displacement of [3H](+)-ABA binding [2]: not

Compound: (+)-ABA
- displacement of [3H]ABA / stereospecificity of pulled-down ABA-binding activity [3]: highly stereospecific
- displacement of [3H](+)-ABA binding [2]: efficient displacement

Compound: CC1=CC(=O)CC(C)(C)C1(O)/C=C/C(C)=C\C(=O)O (single isomer, unassigned; (-)) [(−)-ABA]
- displacement of [3H](+)-ABA binding [2]: not

Source: patent publication US20090044291A1, “DROUGHT-RESISTANT PLANTS AND METHOD FOR PRODUCING THE PLANTS” (D-Helix, priority 2006, published 2009)
